Test results from patent US11649246B2, “Salts of 4-amino-N-(l-((3-chloro-2-fluorophenyl)amino)-6-methylisoquinolin-5-yl)thieno[3,2-D]pyrimidine-7-carboxamide, and crystalline forms thereof” (Hanmi Pharm. Co., Ltd., priority 2017, dated 2023).
Counter-ions that a name gives are not always drawn. Each block holds one compound with its values, some of them ahead of it.

What was measured:
Format in all cases: physicochemical
[1] = Water solubility of Formula (I) free base
Protocol: Formula (I) free base is poorly soluble in water with a solubility of less than 0.4 μg/mL. Salt forms of free base compounds may result in improved water solubility.

[2] = Hygroscopicity / water content at 25° C. and 75% RH; conditions: for Water Content (%): salt as prepared, before humidity exposure; for water content after hygroscopicity test: 25° C. and 75% RH
Protocol: Various salt forms of Formula (I) were prepared from Formula (I) free base and characterized by water solubility, PXRD, DSC, DVS and hygroscopicity.

[3] = Salt screening: solubility by HPLC according to KP, USP and EP general chapters; conditions: water, Example 1B salts
Protocol: For each Example 1B salt, a mixture of 40 mL (20 v/w) of a suitable solvent and 2 g Formula (I) free base was formed with agitation at room temperature. The indicated acid (2.2 eq.) was added to the mixture and salt formation was monitored by visual check. The resulting solid bis-acid salt was stirred for 24 hr at room temperature then filtered, and washed with a suitable solvent.
The water content, solubility in water (mg/mL), appearance, salt yield (%) and PXRD results for each of the salts of Example 1B are summarized in Table 4 where “MsOH” refers to methane sulfonic acid; “BsOH” refers to benzenesulfonic acid; “OW” refers to off-white; “W” refers to white; “Cryst” refers to crystalline; and “Amorph” refers to amorphous. Solubility was measured by HPLC according to KP, USP and EP general chapters.

[4] = Dissociation constant (pKa), GLpKa method, Sirius T3; conditions: as an aqueous solution, calculated by extrapolation
Protocol: Based on these pKa values, Formula (I) is believed to be weakly basic compound.
The dissociation, pKa, was measured with a T3 (Sirius Analytical Instrument Ltd., UK). About 1 mg of Formula (I) bis-hydrochloride was transferred to a GLpKa beaker, dissolved with 43% to 53% MDM solution (ISA Water/MeOH/ACN/p-Dioxane=40/20/20/20, Sirius), adjusted to pH 1.8 with 0.5 N HCl, and titrated up to pH 12.2 with 0.5 N KOH. The pKa as an aqueous solution was calculated by extrapolation.

[5] = Solubility of bis-hydrochloride Form I by HPLC test and observation test
Protocol: Solubility was measured by HPLC according to KP, USP and EP general chapters. […] The results of solubility were same between HPLC test and observation test.

pH of aqueous solution = conditions: room temperature, Form I
Protocol: Aqueous solution pH was measured by preparing 0.01%, 0.1% and 1% aqueous solutions of Formula (I) bis-hydrochloride and then shaking the solution for 30 minutes at room temperature followed by filtration. The pH of the filtered aqueous solution was measured with a S2K713 Pocket pH meter (ISFETCOM, Japan) according to the method of the Korean Pharmacopoeia.

[6] = Partition / distribution coefficient octanol-water (Sirius T3); conditions: for distributed ratio in octanol phase to water phase: ratio to 1
Protocol: The partition coefficient, Log P, was measured with a T3 (Sirius Analytical Instrument Ltd., UK). About 1 mg of Formula (I) bis-hydrochloride was added to a 15 mL GLpKa beaker, dissolved with octanol/150 mM KCl, adjusted to pH 1.8 with 0.5 N HCl, and titrated up to pH 12.2 with 0.5 N KOH. The partition coefficient of the octanol-water system was determined by correcting the difference between titration curves of the blank from the titration curve, by inserting the value of the dissociation constant measured previously.

[7] = Hygroscopicity by dynamic vapor sorption (DVS); conditions: 25°, Form I
Protocol: Dynamic vapor sorption (DVS) analysis was performed in a DVS advantage (Surface measurement system, United Kingdom) analyzer at 25° C. with a relative humidity of 0% to 90%. A sample in an amount of 10 mg was placed into a wire-mesh vapor sorption balance pan and then attached to a DVS advantage dynamic vapor sorption balance via surface measurement systems. […] Upon completion of the sorption cycle, the sample was dried using the same process while maintaining a relative humidity of 0%. The changes in the sample weight during the adsorption/desorption cycle (repeated 3 times) were recorded and the hygroscopicity of the sample was measured. DVS isotherm diagrams are presented in FIGS. 1, 3, 6, 10, 13, 16 and 19 where Target PP (%) refers to relative humidity, “SORP” refers to adsorption and “DESORP” refers to desorption.
Hygroscopicity was measured by DVS where the DVS curve for Formula (I) bis-hydrochloride was recorded in a DVS Advantage I analyzer (SMS, United Kingdom). The DVS was operated over 3 cycles for measurement of the surface adsorption effects of water, from 0% RH to 90% RH at 25°.

[8] = Stress stability test at 60° C.; conditions: for physicochemical stability (summary in words): up to 4 weeks
Protocol: In order to compare physicochemical stability among the crystalline form prepared in Example 3 (crystalline Formula (I) bis-hydrochloride Form I) and 16 (Formula (I) crystalline free base), and the amorphous form prepared in Comparative Example 1, a stress stability test was conducted by storing samples at 60° C., for different periods of time up to 4 weeks.

[9] = Water content of Form VI after humidity exposure (conversion to Form I)
Protocol: Crystalline Form VI was converted to Form I by two methods. In a first method, Form VI was exposed to a relative humidity of 60% at 25° C. In a second method, Form VI was exposed to a relative humidity of 20% at 21° C.

Structure (SMILES): Cc1ccc2c(Nc3cccc(Cl)c3F)nccc2c1NC(=O)c1csc2c(N)ncnc12 [Formula (I) free base, 4-amino-N-(1-((3-chloro-2-fluorophenyl)amino)-6-methylisoquinolin-5-yl)thieno[3,2-d]pyrimidine-7-carboxamide]
solubility [1]: < 0.0004 mg/mL

Structure (SMILES): Cc1ccc2c(Nc3cccc(Cl)c3F)nccc2c1NC(=O)c1csc2c(N)ncnc12 [MsOH, 4-amino-N-(1-((3-chloro-2-fluorophenyl)amino)-6-methylisoquinolin-5-yl)thieno[3,2-d]pyrimidine-7-carboxamide]
Water Content (%) [2]: 2.1%
H2O Solubility [3]: 0.05 mg/mL

Structure (SMILES): Cc1ccc2c(Nc3cccc(Cl)c3F)nccc2c1NC(=O)c1csc2c(N)ncnc12 [Formula (I) bis-hydrochloride salt, 4-amino-N-(1-((3-chloro-2-fluorophenyl)amino)-6-methylisoquinolin-5-yl)thieno[3,2-d]pyrimidine-7-carboxamide]
pKa1 [4]: 3.86
pKa2 [4]: 4.73
pKa3 [4]: 10.30
pKa3 ([4]; listed as Formula (I) bis-hydrochloride): 10.30
Solubility Observation ([5]; ACN): practically in soluble
Solubility Observation ([5]; DMSO): freely soluble
Solubility Observation ([5]; Dichloromethane): practically in soluble
Solubility Observation ([5]; Ethanol): very slightly soluble
Solubility Observation ([5]; Ethyl acetate): practically in soluble
Solubility Observation ([5]; Ethyl ether): practically in soluble
Solubility Observation ([5]; Methanol): sparingly soluble
Solubility Observation ([5]; Water): practically insoluble
Solubility Observation ([5]; buffer over pH 3.0): practically insoluble
Solubility Observation ([5]; n-Hexane): practically in soluble
Solubility Observation ([5]; pH 1.2 buffer): very slightly soluble
Solubility Observation ([5]; pH 2.0 buffer): very slightly soluble
pH of aqueous solution (pH of aqueous solution; 0.1 mg/mL (0.01%) solution): 3.9
pH of aqueous solution (pH of aqueous solution; 1 mg/mL (0.1%) solution): 2.6
pH of aqueous solution (pH of aqueous solution; 10 mg/mL (1%) solution): 1.8
water content after hygroscopicity test [2]: 11.7%
Water Content (%) [2]: 6.2%
Water Content (%) ([2]; listed as HCl): 6.2%
distributed ratio in octanol phase to water phase ([6]; neutral state at pH 11 or higher): about 20,000
logP ([6]; octanol/water (octanol/150 mM KCl), neutral state at pH 11 or higher): 4.33
logD ([6]; octanol/water, pH 7.4): 5.24
distributed ratio in octanol phase to water phase ([6]; pH 7.4): about 200,000
water absorption (DVS) ([7]; from 0% RH to 20% RH): about 9.4%
water absorption (DVS) ([7]; from 0% RH to 90% RH): about 14.1%
water desorption (DVS) ([7]; from 10% RH to ~0% RH): about 8.9%
water absorption (DVS), increased to ([7]; from 20% RH to 90% RH): 14.1%
water desorption (DVS) ([7]; from 90% RH to 10% RH): about 5.2%
H2O Solubility ([3]; listed as HCl): 0.12 mg/mL

Structure (SMILES): Cc1ccc2c(Nc3cccc(Cl)c3F)nccc2c1NC(=O)c1csc2c(N)ncnc12 [HBr, 4-amino-N-(1-((3-chloro-2-fluorophenyl)amino)-6-methylisoquinolin-5-yl)thieno[3,2-d]pyrimidine-7-carboxamide]
Water Content (%) [2]: 2.9%
H2O Solubility [3]: 0.05 mg/mL

Structure (SMILES): Cc1ccc2c(Nc3cccc(Cl)c3F)nccc2c1NC(=O)c1csc2c(N)ncnc12 [Example 16, 4-amino-N-(1-((3-chloro-2-fluorophenyl)amino)-6-methylisoquinolin-5-yl)thieno[3,2-d]pyrimidine-7-carboxamide]
Purity(%) (A % by HPLC) ([8]; 2 weeks): 99.7%
Total impurities(%) (A % by HPLC) ([8]; 2 weeks): 0.29%
Purity(%) (A % by HPLC) ([8]; 7 days): 99.7%
Total impurities(%) (A % by HPLC) ([8]; 7 days): 0.29%
Purity(%) (A % by HPLC) ([8]; Initial): 99.7%
Total impurities(%) (A % by HPLC) ([8]; Initial): 0.29%
physicochemical stability (summary in words) ([8]; listed as crystalline form of the free base): remarkably superior stability over the amorphous form

Structure (SMILES): Cc1ccc2c(Nc3cccc(Cl)c3F)nccc2c1NC(=O)c1csc2c(N)ncnc12 [Comparative Example 1, 4-amino-N-(1-((3-chloro-2-fluorophenyl)amino)-6-methylisoquinolin-5-yl)thieno[3,2-d]pyrimidine-7-carboxamide]
Purity(%) (A % by HPLC) ([8]; 2 weeks): 99.5%
Total impurities(%) (A % by HPLC) ([8]; 2 weeks): 0.485%
Purity(%) (A % by HPLC) ([8]; 4 weeks): 99.3%
Total impurities(%) (A % by HPLC) ([8]; 4 weeks): 0.68%
Purity(%) (A % by HPLC) ([8]; 1 day): 99.7%
Total impurities(%) (A % by HPLC) ([8]; 1 day): 0.30%
Purity(%) (A % by HPLC) ([8]; 3 days): 99.7%
Total impurities(%) (A % by HPLC) ([8]; 3 days): 0.31%
Purity(%) (A % by HPLC) ([8]; 7 days): 99.6%
Total impurities(%) (A % by HPLC) ([8]; 7 days): 0.38%
Purity(%) (A % by HPLC) ([8]; Initial): 99.7%
Total impurities(%) (A % by HPLC) ([8]; Initial): 0.32%
physicochemical stability (summary in words) ([8]; listed as amorphous form): change of purity after 7 days

Further lines, results first:

Water Content (%) [2]: 0.9%
H2O Solubility [3]: 0.03 mg/mL
Structure (SMILES): Cc1ccc2c(Nc3cccc(Cl)c3F)nccc2c1NC(=O)c1csc2c(N)ncnc12 [BsOH, 4-amino-N-(1-((3-chloro-2-fluorophenyl)amino)-6-methylisoquinolin-5-yl)thieno[3,2-d]pyrimidine-7-carboxamide]

water content after hygroscopicity test [2]: 17.1%
Water Content (%) [2]: 2.6%
Water Content (%) ([2]; listed as H2SO4): 2.6%
H2O Solubility ([3]; listed as H2SO4): 0.16 mg/mL
Structure (SMILES): Cc1ccc2c(Nc3cccc(Cl)c3F)nccc2c1NC(=O)c1csc2c(N)ncnc12 [Formula (I) bis-hydrogensulfate salt, 4-amino-N-(1-((3-chloro-2-fluorophenyl)amino)-6-methylisoquinolin-5-yl)thieno[3,2-d]pyrimidine-7-carboxamide]

water content ([9]; after exposure at 21° C. and 20% RH for 3 hours): 8.0%
water content ([9]; after exposure at 21° C. and 20% RH for 6 hours): 10.4%
water content ([9]; after exposure at 21° C. and 20% RH for 5 days): 10.1%
water content ([9]; after exposure at 25° C. and 60% RH): 11.3%
Structure (SMILES): Cc1ccc2c(Nc3cccc(Cl)c3F)nccc2c1NC(=O)c1csc2c(N)ncnc12 [Form VI, 4-amino-N-(1-((3-chloro-2-fluorophenyl)amino)-6-methylisoquinolin-5-yl)thieno[3,2-d]pyrimidine-7-carboxamide]
